From patent US8465945B2, “Method for production and use of mite group 1 proteins” (Merck Patent GmbH, priority 1999, dated 2013)

Experiments:
[1] = biological target: T1, P. pastoris-expressed Der f 1 protein (Dermatophagoides farinae, UniProt P16311, D282V); assay: Inhibition of rDer f 1 cysteine protease activity by E-64; assay type: biochemical, D. farinae; settings: E-64 1 μg/ml
T1 construct: The Der f 1 protein secreted as a mature form by recombinant cell P. pastoris HCY215; S. cerevisiae alpha factor signal peptide (with KEX2 site and Glu-Ala spacer) (N, cleaved yes); made in house; host or cells: Pichia pastoris strain X33 transformed with pBC128 (recombinant cell HCY215)
Protocol: Native Der f 1 is believed to be a cysteine protease, based on homology to papain; see, for example, Chua et al, 1992, J Exp Med 167, 175-182. The Der f 1 protein secreted as a mature form by recombinant cell P. pastoris HCY215 (i.e., P. pastoris strain X33 transformed with plasmid pBC128 containing nucleic acid molecule nDerf1909b (coding strand of SEQ ID NO:28) which encodes the pro-form of Der f 1 (amino acid sequence SEQ ID NO:29)) was tested for cysteine protease activity in the following manner. Three concentrations of protein were tested for their abilities to cleave an artificial substrate in the presence or absence of a cysteine protease inhibitor. Specifically, three pairs of samples containing 0.56 μg, 1.1 μg, or 5.6 μg of P. pastoris-expressed Der f 1 protein, respectively, were incubated for 30 minutes at room temperature in 20 μl of 50 mM Tris-HCl, pH 8. One member of each pair also contained the irreversible cysteine protease inhibitor E-64 at a concentration of 1 μg/ml. After the pre-incubation, 100 μl of 50 μM quenched fluorogenic substrate z-Val-Leu-Arg-AMC (available from Enzyme Systems Products, Livermore, Calif.) was added to all six samples, and the samples were incubated for 2 hours at room temperature. Fluorescence was measured using a Perkin Elmer Luminescence Spectrometer (model #LS50B) at an excitation wavelength of 380nm and an emission wavelength of 460 nm.

[2] = test system: IgE; settings: cited from earlier work

T1 sequence (P16311 99-321 D282V): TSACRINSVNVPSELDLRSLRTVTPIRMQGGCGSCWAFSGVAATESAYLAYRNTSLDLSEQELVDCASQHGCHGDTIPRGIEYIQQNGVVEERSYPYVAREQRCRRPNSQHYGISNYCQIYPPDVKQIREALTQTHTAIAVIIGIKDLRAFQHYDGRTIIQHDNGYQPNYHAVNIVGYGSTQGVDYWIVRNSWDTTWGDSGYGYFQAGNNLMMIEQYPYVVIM

Molecule | % Inhibition E-64 ([1]; 0.56 micrograms rDer f 1) [%] | % Inhibition E-64 ([1]; 1.1 micrograms rDer f 1) [%] | % Inhibition E-64 ([1]; 5.6 micrograms rDer f 1) [%] | sera reactive, of 11 sera reactive with the native protein ([2]; Chua et al) | IgE reactivity relative to the native protein ([2]; literature reports (Chua et al 1992; Shoji et al 1996, 1997))
CC(C)C[C@H](NC(=O)[C@H]1O[C@@H]1C(=O)O)C(=O)NCCCCN=C(N)N [E-64] | 65 | 55 | 76 |  | 
S. cerevisiae-expressed Der p 1 proenzyme: Recombinant Der p 1 pro-form produced in S. cerevisiae, solubilized and renatured (Chua et al) (protein, UniProt P08176 19-320, looked up, pro-form S. cerevisiae-expressed) pro-form: RPSSIKTFEEYKKAFNKSYATFEDEEAARKNFLESVKYVQSNGGAINHLSDLSLDEFKNRFLMSAEAFEHLKTQFDLNAETNACSINGNAPAEIDLRQMRTVTPIRMQGGCGSCWAFSGVAATESAYLAYRNQSLDLAEQELVDCASQHGCHGDTIPRGIEYIQHNGVVQESYYRYVAREQSCRRPNAQRFGISNYCQIYPPNVNKIREALAQTHSAIAVIIGIKDLDAFRHYDGRTIIQRDNGYQPNYHAVNIVGYSNAQGVDYWIVRNSWDTNWGDNGYGYFAANIDLMMIEEYPYVVIL |  |  |  | 9 | about 80%
